Results published in US12577206B2 (BRISTOL-MYERS SQUIBB COMPANY, priority 2020, dated 2026).

Columns and labels:
[1] = target: T1, human FPR2 (Homo sapiens, UniProt P25090); test: FPR2 cyclic adenosine monophosphate (cAMP) assay; assay type: cell-based; settings: CHO cells overexpressing human FPR2; forskolin 5 μM; inhibition of cAMP production; HTRF; read-out: hFPR2 cAMP2 EC50
T1 sequence (P25090 1-351): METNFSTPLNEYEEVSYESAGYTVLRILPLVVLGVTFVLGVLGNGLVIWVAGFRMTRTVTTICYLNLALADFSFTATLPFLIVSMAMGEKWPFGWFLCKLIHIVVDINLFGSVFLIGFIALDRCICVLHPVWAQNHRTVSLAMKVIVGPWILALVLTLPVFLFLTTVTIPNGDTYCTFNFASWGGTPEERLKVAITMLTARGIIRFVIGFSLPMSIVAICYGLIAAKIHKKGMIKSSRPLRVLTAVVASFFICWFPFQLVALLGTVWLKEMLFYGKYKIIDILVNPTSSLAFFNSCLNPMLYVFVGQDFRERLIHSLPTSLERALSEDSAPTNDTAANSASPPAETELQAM
How it was run: (§1)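 CHO cells overexpressing human FPR1 (4,000/well) or FPR2 (2,000/well) were incubated 30 min at room temperature with compound (0.020 nM to 100 μM, 1% DMSO), IBMX 200 μM, and forskolin at 10 μM (FPR1) or 5 μM (FPR2), all final. HTRF cAMP read-out; inhibition fitted by 4-parameter logistic equation.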

[2] = target: T2, human FPR1 (Homo sapiens, UniProt P21462); test: FPR1 cyclic adenosine monophosphate (cAMP) assay; assay type: cell-based; settings: CHO cells overexpressing human FPR1; forskolin 10 μM; inhibition of cAMP production; HTRF; read-out: hFPR1 cAMP2 EC50
T2 sequence (P21462 1-350): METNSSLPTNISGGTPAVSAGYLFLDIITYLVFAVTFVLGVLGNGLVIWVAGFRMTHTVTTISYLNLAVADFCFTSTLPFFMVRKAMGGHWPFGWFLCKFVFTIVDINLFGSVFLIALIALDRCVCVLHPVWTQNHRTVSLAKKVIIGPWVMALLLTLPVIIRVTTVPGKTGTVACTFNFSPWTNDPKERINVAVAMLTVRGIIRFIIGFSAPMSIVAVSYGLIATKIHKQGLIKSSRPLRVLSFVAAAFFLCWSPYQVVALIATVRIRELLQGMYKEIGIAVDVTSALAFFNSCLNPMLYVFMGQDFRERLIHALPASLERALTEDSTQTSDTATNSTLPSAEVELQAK
How it was run: as §1

EC50 [1]	EC50 [2]	SMILES
0.002 µM	3.9 µM	COc1cc(F)c(-c2c(NC(=O)c3ccc(OC(F)F)cc3)c(=O)n(-c3nc(N4CCC(C(N)=O)C4)ccc3C(F)(F)F)n2C)c(F)c1 (stereo not shown) [Example 305, 1-{6-[3-(2,6-difluoro-4-methoxyphenyl)-4-[4-(difluoromethoxy)benzamido]-2-methyl-5-oxo-2,5-dihydro-1H-pyrazol-1-yl]-5-(trifluoromethyl)pyridin-2-yl}pyrrolidine-3-carboxamide]
0.001 µM	2.3 µM	COc1cc(F)c(-c2c(NC(=O)c3ccc(OC(F)F)cc3)c(=O)n(-c3nc(N4CCN5CCC[C@@H]5C4)ccc3C(F)(F)F)n2C)c(F)c1 [Example 306, N-(2-{6-[(8aR)-octahydropyrrolo[1,2-a]piperazin-2-yl]-3-(trifluoromethyl)pyridin-2-yl}-5-(2,6-difluoro-4-methoxyphenyl)-1-methyl-3-oxo-2,3-dihydro-1H-pyrazol-4-yl)-4-(difluoromethoxy)benzamide]
0.005 µM	> 10 µM	COc1cc(F)c(-c2c(NC(=O)c3ccc(OC(F)F)cc3)c(=O)n(-c3nc(N4CC(C)(O)C4)ccc3Cl)n2C)c(F)c1 [Example 307, N-{2-[3-chloro-6-(3-hydroxy-3-methylazetidin-1-yl)pyridin-2-yl]-5-(2,6-difluoro-4-methoxyphenyl)-1-methyl-3-oxo-2,3-dihydro-1H-pyrazol-4-yl}-4-(difluoromethoxy)benzamide]
0.003 µM	> 10 µM	COc1cc(F)c(-c2c(NC(=O)c3ccc(OC(F)F)cc3)c(=O)n(-c3nc(N4CC5(CC(O)C5)C4)ccc3C(F)(F)F)n2C)c(F)c1 [Example 308, N-[5-(2,6-difluoro-4-methoxyphenyl)-2-(6-{6-hydroxy-2-azaspiro[3.3]heptan-2-yl}-3-(trifluoromethyl)pyridin-2-yl)-1-methyl-3-oxo-2,3-dihydro-1H-pyrazol-4-yl]-4-(difluoromethoxy)benzamide]
0.01 µM	2.2 µM	CCc1ccc(OCC(C)(C)O)nc1-n1c(=O)c(NC(=O)c2ccc(OC(F)F)cc2)c(-c2c(F)cc(OC)cc2F)n1C [Example 309, N-[5-(2,6-difluoro-4-methoxyphenyl)-2-[3-ethyl-6-(2-hydroxy-2-methylpropoxy)pyridin-2-yl]-1-methyl-3-oxo-2,3-dihydro-1H-pyrazol-4-yl]-4-(difluoromethoxy)benzamide]
0.007 µM	> 10 µM	CCc1ccc(N2CC(C)(O)C2)nc1-n1c(=O)c(NC(=O)c2ccc(OC(F)F)cc2)c(-c2c(F)cc(OC)cc2F)n1C [Example 310, N-[5-(2,6-difluoro-4-methoxyphenyl)-2-[3-ethyl-6-(3-hydroxy-3-methylazetidin-1-yl)pyridin-2-yl]-1-methyl-3-oxo-2,3-dihydro-1H-pyrazol-4-yl]-4-(difluoromethoxy)benzamide]
0.005 µM	> 10 µM	COc1cc(F)c(-c2c(NC(=O)c3ccc(OC(F)F)cc3)c(=O)n(-c3nc(N4CC(C)(O)C4)ccc3C#N)n2C)c(F)c1 [Example 311, N-{2-[3-cyano-6-(3-hydroxy-3-methylazetidin-1-yl)pyridin-2-yl]-5-(2,6-difluoro-4-methoxyphenyl)-1-methyl-3-oxo-2,3-dihydro-1H-pyrazol-4-yl}-4-(difluoromethoxy)benzamide]
0.012 µM	2 µM	COc1cc(F)c(-c2c(NC(=O)c3ccc(OC(F)F)cc3)c(=O)n(-c3cccc(N4CC(C)(O)C4)n3)n2C)c(F)c1 [Example 312, N-[5-(2,6-difluoro-4-methoxyphenyl)-2-[6-(3-hydroxy-3-methylazetidin-1-yl)pyridin-2-yl]-1-methyl-3-oxo-2,3-dihydro-1H-pyrazol-4-yl]-4-(difluoromethoxy)benzamide]
0.001 µM	0.21 µM	COc1ccc(-c2c(NC(=O)c3ccc(OC(F)F)cc3)c(=O)n(-c3nc(N4CCC(C)(O)CC4)ccc3C(F)(F)F)n2C)c(F)c1 [Example 313, 4-(difluoromethoxy)-N-[5-(2-fluoro-4-methoxyphenyl)-2-[6-(4-hydroxy-4-methylpiperidin-1-yl)-3-(trifluoromethyl)pyridin-2-yl]-1-methyl-3-oxo-2,3-dihydro-1H-pyrazol-4-yl]benzamide]
0.001 µM	2.7 µM	COc1cc(F)c(-c2c(NC(=O)c3ccc(OC(F)F)cc3)c(=O)n(-c3nc(N4CCC(C)(O)CC4)ccc3C(F)(F)F)n2C)c(F)c1 [Example 314, N-[5-(2,6-difluoro-4-methoxyphenyl)-2-[6-(4-hydroxy-4-methylpiperidin-1-yl)-3-(trifluoromethyl)pyridin-2-yl]-1-methyl-3-oxo-2,3-dihydro-1H-pyrazol-4-yl]-4-(difluoromethoxy)benzamide]
0.03 µM	0.29 µM	COc1cccc(-n2c(=O)c(NC(=O)c3ccc(OC(F)F)cc3)c(-c3ccc(OC(F)F)cc3)n2C)n1 [Example 315, 4-(difluoromethoxy)-N-{5-[4-(difluoromethoxy)phenyl]-2-(6-methoxypyridin-2-yl)-1-methyl-3-oxo-2,3-dihydro-1H-pyrazol-4-yl}benzamide]
0.002 µM	> 5 µM	COc1cc(F)c(-c2c(NC(=O)c3ccc(OC(F)F)cc3)c(=O)n(-c3nc(C4CCN(S(C)(=O)=O)CC4)ccc3Cl)n2C)c(F)c1 [Example 316, N-{2-[3-chloro-6-(1-methanesulfonylpiperidin-4-yl)pyridin-2-yl]-5-(2,6-difluoro-4-methoxyphenyl)-1-methyl-3-oxo-2,3-dihydro-1H-pyrazol-4-yl}-4-(difluoromethoxy)benzamide]
0.014 µM	1.8 µM	Cn1c(-c2ccc(OC(F)F)cc2)c(NC(=O)c2ccc(OC(F)F)cc2)c(=O)n1-c1nc(Cl)ccc1C(F)(F)F [Example 317, N-{2-[6-chloro-3-(trifluoromethyl)pyridin-2-yl]-5-[4-(difluoromethoxy)phenyl]-1-methyl-3-oxo-2,3-dihydro-1H-pyrazol-4-yl}-4-(difluoromethoxy)benzamide]
0.007 µM	> 10 µM	COc1cc(F)c(-c2c(NC(=O)c3ccc(OC(F)F)cc3)c(=O)n(-c3nc(S(C)(=O)=O)ccc3C(F)(F)F)n2C)c(F)c1 [Example 318, N-[5-(2,6-difluoro-4-methoxyphenyl)-2-[6-methanesulfonyl-3-(trifluoromethyl)pyridin-2-yl]-1-methyl-3-oxo-2,3-dihydro-1H-pyrazol-4-yl]-4-(difluoromethoxy)benzamide]
0.002 µM	> 10 µM	COc1cc(F)c(-c2c(NC(=O)c3ccc(OC(F)F)cc3)c(=O)n(-c3nc(C4CCN(S(C)(=O)=O)CC4)ccc3C(F)(F)F)n2C)c(F)c1 [Example 319]
0.002 µM	0.99 µM	COc1cc(F)c(-c2c(NC(=O)c3ccc(OC(F)F)cc3)c(=O)n(-c3cc(OC4CCOC4)cc(C)n3)n2C)c(F)c1 (stereo not shown) [Example 320, N-(5-(2,6-Difluoro-4-methoxyphenyl)-1-methyl-2-(6-methyl-4-((tetrahydrofuran-3-yl)oxy)pyridin-2-yl)-3-oxo-2,3-dihydro-1H-pyrazol-4-yl)-4-(difluoromethoxy)benzamide]
0.004 µM	0.39 µM	COc1cc(F)c(-c2c(NC(=O)c3ccc(OC(F)F)cc3)c(=O)n(-c3cc(OC4CCOC4)cc(C)n3)n2C)c(F)c1 (stereo not shown) [Example 321, N-(5-(2,6-Difluoro-4-methoxyphenyl)-1-methyl-2-(6-methyl-4-((tetrahydrofuran-3-yl)oxy)pyridin-2-yl)-3-oxo-2,3-dihydro-1H-pyrazol-4-yl)-4-(difluoromethoxy)benzamide]
0.007 µM	> 10 µM	COc1cc(OCC(C)(C)O)nc(-n2c(=O)c(NC(=O)c3ccc(OC(F)F)cc3)c(-c3c(F)cc(OC)cc3F)n2C)c1 [Example 322]
0.014 µM	> 10 µM	COc1cc(F)c(-c2c(NC(=O)c3ccc(OC(F)F)cc3)c(=O)n(-c3cc(C4CCNCC4)cc(C)n3)n2C)c(F)c1 [Example 323, N-(5-(2,6-Difluoro-4-methoxyphenyl)-1-methyl-2-(6-methyl-4-(piperidin-4-yl)pyridin-2-yl)-3-oxo-2,3-dihydro-1H-pyrazol-4-yl)-4-(difluoromethoxy)benzamide]
0.005 µM	> 10 µM	COc1cc(F)c(-c2c(NC(=O)c3ccc(OC(F)F)cc3)c(=O)n(-c3cc(C4CCN(C)CC4)cc(C)n3)n2C)c(F)c1 [Example 324, N-(5-(2,6-Difluoro-4-methoxyphenyl)-1-methyl-2-(6-methyl-4-(1-methylpiperidin-4-yl)pyridin-2-yl)-3-oxo-2,3-dihydro-1H-pyrazol-4-yl)-4-(difluoromethoxy)benzamide]
